Data: the supplement of paper PMC11061612

Legend:
Test in all cases: Bliss excess, mean over the matrix (fraction); higher = more synergy
[1] = tested on: NCI-H1963 (Small Cell Lung Carcinoma)
Outline: (§1)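 After 24 hours at 37°C and 5% CO2 in 1536-well plates, cells in DMEM/F12 or RPMI plus 10% FBS received two-drug dose matrices for 72 hours. Viability came from CellTiter-Glo 2.0 luminescence and was scaled as inhibition, anchored at 0 by vehicle wells and at 1 by blank wells. Combination Emax is taken as the second-highest inhibition in the matrix, and Bliss excess as the observed combination effect less EA + EB − EA·EB, with EA and EB the single-agent effects.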

[2] = tested on: DBTRG-05MG (Glioblastoma)
Outline: as §1

[3] = tested on: PL4 (Pancreatic Carcinoma)
Outline: as §1

[4] = tested on: SAT (Head and Neck Carcinoma)
Outline: as §1

KALS-1 (Glioblastoma) = tested on: KALS-1 (Glioblastoma)
Outline: as §1

[5] = tested on: C-33-A (Cervical Carcinoma)
Outline: as §1

SK-N-SH (Neuroblastoma) = tested on: SK-N-SH (Neuroblastoma)
Outline: as §1

[6] = tested on: RCC-JW (Kidney Carcinoma)
Outline: as §1

[7] = tested on: SiHa (Cervical Carcinoma)
Outline: as §1

[8] = tested on: NAMALWA (Burkitt's Lymphoma)
Outline: as §1

[9] = tested on: OAW-28 (Ovarian Carcinoma)
Outline: as §1

[10] = tested on: SNU-C2B (Colorectal Carcinoma)
Outline: as §1

[11] = tested on: CPC-N (Small Cell Lung Carcinoma)
Outline: as §1

ES6 (Ewing's Sarcoma) = tested on: ES6 (Ewing's Sarcoma)
Outline: as §1

[12] = tested on: MOLP-8 (Plasma Cell Myeloma)
Outline: as §1

[13] = tested on: LCLC-103H (Non-Small Cell Lung Carcinoma)
Outline: as §1

[14] = tested on: LS-1034 (Colorectal Carcinoma)
Outline: as §1

[15] = tested on: SCC-4 (Oral Cavity Carcinoma)
Outline: as §1

[16] = tested on: SUP-M2 (T-Cell Non-Hodgkin's Lymphoma)
Outline: as §1

[17] = tested on: SKG-IIIa (Cervical Carcinoma)
Outline: as §1

SMILES | Bliss excess [1] | Bliss excess [2] | Bliss excess [3] | Bliss excess [4] | Bliss excess (KALS-1 (Glioblastoma)) | Bliss excess [5] | Bliss excess (SK-N-SH (Neuroblastoma)) | Bliss excess [6] | Bliss excess [7] | Bliss excess [8] | Bliss excess [9] | Bliss excess [10] | Bliss excess [11] | Bliss excess (ES6 (Ewing's Sarcoma)) | Bliss excess [12] | Bliss excess [13] | Bliss excess [14] | Bliss excess [15] | Bliss excess [16] | Bliss excess [17]
COc1cccc(OCCCN)c1-c1cc(Nc2cnc(C#N)cn2)n[nH]1 [Prexasertib] + C=CCn1c(=O)c2cnc(Nc3ccc(N4CCN(C)CC4)cc3)nc2n1-c1cccc(C(C)(C)O)n1 [AZD1775] (first compound max 1 µM, partner max 1 µM) | 0.068 | -0.0008 | 0.0483 | -0.0318 | -0.0436 | 0.0983 | 0.0025 | 0.169 | 0.0666 | 0.06 | 0.0319 | -0.0336 | 0.0431 | 0.0362 | 0.0398 | 0.0284 | 0.0999 | -0.0358 | 0.102 | -0.006
Cc1c2c(nn1C)CSCc1cc(n(C)n1)CSc1cc(c3ccccc3c1)OCCCc1c(C(=O)O)n(C)c3c-2c(Cl)ccc13 [AZD5991] + C=CCn1c(=O)c2cnc(Nc3ccc(N4CCN(C)CC4)cc3)nc2n1-c1cccc(C(C)(C)O)n1 [AZD1775] (first compound max 1 µM, partner max 1 µM) | 0.0006 | 0.005 | -0.0928 | 0.0173 | -0.0169 | -0.0556 | -0.0163 | 0.0418 | -0.0646 | 0.0017 | 0.0049 | 0.0194 | -0.0453 | 0.0814 | -0.0041 | 0.0101 | -0.098 | 0.0917 | 0.0007 | 0.0071
CC1(C)CCC(CN2CCN(c3ccc(C(=O)NS(=O)(=O)c4ccc(NCC5CCOCC5)c([N+](=O)[O-])c4)c(Oc4cnc5[nH]ccc5c4)c3)CC2)=C(c2ccc(Cl)cc2)C1 [Venetoclax] + C1CN(CCC1(C(=O)N[C@@H](CCO)C2=CC=C(C=C2)Cl)N)C3=NC=NC4=C3C=CN4 [Capivasertib] (first compound max 1 µM, 7x7, partner max 3 µM) | -0.0031 | -0.0522 | -0.0363 | -0.0422 | -0.0501 | -0.0453 | -0.0998 | -0.0312 | -0.002 | -0.0126 | -0.0123 | -0.0833 | -0.0365 | -0.0858 | -0.0114 | -0.0756 | -0.0214 | -0.0792 | -0.0232 | -0.0207
C[C@@H](c1ccc2nccn2c1)n1nnc2ncc(-c3cnn(C)c3)nc21 [Savolitinib] + CC1(C)CCC(CN2CCN(c3ccc(C(=O)NS(=O)(=O)c4ccc(NCC5CCOCC5)c([N+](=O)[O-])c4)c(Oc4cnc5[nH]ccc5c4)c3)CC2)=C(c2ccc(Cl)cc2)C1 [Venetoclax] (first compound max 1 µM, 7x7, partner max 1 µM) | -0.0237 | -0.0572 | -0.105 | -0.131 | -0.0571 | -0.0466 | -0.0289 | -0.0343 | -0.0536 | -0.0098 | -0.0331 | -0.0831 | -0.0454 | -0.0344 | -0.0194 | -0.0518 | -0.0465 | -0.0649 | -0.0238 | -0.0546
C[C@@H](c1ccc2nccn2c1)n1nnc2ncc(-c3cnn(C)c3)nc21 [Savolitinib] + Cc1c2c(nn1C)CSCc1cc(n(C)n1)CSc1cc(c3ccccc3c1)OCCCc1c(C(=O)O)n(C)c3c-2c(Cl)ccc13 [AZD5991] (first compound max 1 µM, 7x7, partner max 1 µM) | -0.0134 | -0.0596 | -0.0492 | -0.0558 | -0.0411 | -0.0084 | -0.0501 | -0.0354 | -0.0335 | -0.05 | -0.0129 | -0.0554 | -0.0179 | -0.0384 | -0.0219 | -0.0417 | -0.022 | -0.0295 | -0.0292 | -0.0554
Cn1cnc2c(F)c(Nc3ccc(Br)cc3Cl)c(C(=O)NOCCO)cc21 [Selumetinib] + C[C@@H]1COCCN1C2=NC(=NC(=C2)C3(CC3)[S@](=N)(=O)C)C4=C5C=CNC5=NC=C4 [AZD6738] (first compound max 10 µM, 7x7, partner max 10 µM) | 0.0735 | 0.0599 | 0.0866 | 0.0782 | -0.0479 | 0.0486 | -0.0719 | -0.0393 | 0.0006 | -0.0083 | 0.046 | 0.0369 | -0.046 | -0.043 | 0.0551 | -0.0399 | -0.0316 | -0.0352 | 0.012 | -0.0275
COc1cccc(OCCCN)c1-c1cc(Nc2cnc(C#N)cn2)n[nH]1 [Prexasertib] + Cc1cc2ncnn2cc1Nc1ncc2c(n1)n(C1CCOCC1)c(=O)n2C [AZD7648] (first compound max 1 µM, 7x7, partner max 10 µM) | -0.0075 | -0.0105 | 0.0048 | -0.0294 | -0.0363 | -0.0283 | -0.0138 | 0.0374 | -0.0174 | 0.0087 | -0.025 | -0.0356 | -0.0459 | 0.0027 | -0.013 | -0.0791 | -0.0229 | -0.0267 | 0.0696 | 0.0223
